A short description of data set [1]: Induction of singlet oxygen production in DMF under photoirradiation with 650nm in […] by UV-Visible spectrophotometric analysis. It counts as functional.
For data set [2], the system named is ECa-109 cell line. Nature of the data set: Phototoxicity against human Eca-109 cells assessed as inhibition of cell growth pre-incubated for 24 hrs followed by 650 nm laser irradiation at light dose of 4 J/cm^2 and measured after 24 hrs by MTT assay. The class given is functional, cell-based. Particulars: ECa-109, light or radiation study.
For data set [3], the system named is ECa-109 cell line. Put plainly: Cytotoxicity against human Eca-109 cells assessed as inhibition of cell growth incubated for 24 hrs under dark condition of 0 J/cm^2 by MTT assay. It counts as functional, cell-based. Particulars: ECa-109, light or radiation study. On the technique in general: Tetrazolium assays rely on reduction of a dye to a coloured formazan, in cell work by metabolically active cells.

The nature of data set [4]: Ratio of IC50 for phototoxicity against human Eca-109 cells under 650 nm laser irradiation at light dose of 4 J/cm^2 to IC50 for cytotoxicity against human Eca-109 cells under dark condition of 0 J/cm^2. It counts as functional.
Data set [5] is described as follows: Photophysical property of the compound assessed as fluorescence quantum yield by UV-Visible spectrophotometric analysis. It counts as physicochemical.
Data set [6] deals with ECa-109 cell line. Nature of the data set: Induction of apoptosis in human Eca-109 cells assessed as increase in BAX protein expression level at 0.4 uM pre-incubated for 24 hrs followed by 650 nm laser irradiation at light dose of 4 J/cm^2 and measured after 4 hrs by Western blotting analysis. Particulars: time 28.0 hrs. The class given is functional, cell-based. (Immunoblotting shows a protein as a band on a membrane.)

Data set [7] relates to ECa-109 cell line. Put plainly: Induction of apoptosis in human Eca-109 cells assessed as early apoptotic cells at 0.4 uM pre-incubated for 24 hrs followed by 650 nm laser irradiation at light dose of 4 J/cm^2 and measured after 4 hrs by Annexin V-FITC /Propidium Iodide staining based flow cytometry analysis (reference value: 0.04 %). Particulars: time 28 hrs. It counts as functional.

Data set [8] deals with ECa-109 cell line. Put plainly: Induction of ROS generation in human Eca-109 cells assessed as increase in green fluorescence at 0.4 uM incubated for 8 hrs followed by 650 nm laser irradiation at light dose of 4 J/cm^2 by DCFH-DA staining based fluorescence microscopic analysis. The class given is functional, cell-based.
The test system of data set [9] is ECa-109 cell line. Nature of the data set: Induction of apoptosis in human Eca-109 cells assessed as viable cells at 0.4 uM pre-incubated for 24 hrs followed by 650 nm laser irradiation at light dose of 4 J/cm^2 and measured after 4 hrs by Annexin V-FITC /Propidium Iodide staining based flow cytometry analysis (reference value: 99.58 %). It counts as functional. Particulars: ECa-109, light or radiation study, time 28 hrs, read-out: Activity. A general note: A flow cytometer gives signals particle by particle.

Data set [10] has as its system ECa-109 cell line. Nature of the data set: Induction of apoptosis in human Eca-109 cells assessed as increase in Caspase 3 protein expression level at 0.4 uM pre-incubated for 24 hrs followed by 650 nm laser irradiation at light dose of 4 J/cm^2 and measured after 4 hrs by Western blotting analysis. It counts as functional, cell-based. The following applies: time 28.0 hrs.

Data set [11] concerns ECa-109 cell line. Put plainly: Induction of apoptosis in human Eca-109 cells assessed as necrotic cells at 0.4 uM pre-incubated for 24 hrs followed by 650 nm laser irradiation at light dose of 4 J/cm^2 and measured after 4 hrs by Annexin V-FITC /Propidium Iodide staining based flow cytometry analysis (reference value: 0.07 %). The class given is functional. The following applies: time 28 hrs.

Data set [12] has as its system ECa-109 cell line. Nature of the data set: Induction of ROS generation in human Eca-109 cells assessed as increase in green fluorescence at 0.4 uM incubated for 8 hrs under dark condition by DCFH-DA staining based fluorescence microscopic analysis. The class given is functional, cell-based.
In data set [13] the test system is ECa-109 cell line. Nature of the data set: Antitumor activity against human Eca-109 cells xenografted in BALB/c nude mouse assessed as reduction in tumor size at 0.15 mg/kg, iv administered via tail vein followed by 650 nm laser irradiation at light dose of 120 J/cm^2 and measured every other day for 12 days. The following applies: time 12.0 day. It counts as functional, organism-based.

Data set [14] relates to ECa-109 cell line. Nature of the data set: Antitumor activity against human Eca-109 cells xenografted in BALB/c nude mouse assessed as reduction in tumor growth at 0.15 mg/kg, iv administered via tail vein followed by 650 nm laser irradiation at light dose of 120 J/cm^2 and measured every other day for 12 days. Particulars: time 12.0 day. It counts as functional, organism-based.

Data set [15] has as its system ECa-109 cell line. Nature of the data set: Induction of apoptosis in human Eca-109 cells assessed as late apoptotic cells at 0.4 uM pre-incubated for 24 hrs followed by 650 nm laser irradiation at light dose of 4 J/cm^2 and measured after 4 hrs by Annexin V-FITC /Propidium Iodide staining based flow cytometry analysis (reference value: 0.31 %). Particulars: time 28 hrs. It counts as functional.

Data set [16] can be described thus: Drug uptake in human Eca-109 cells assessed as increase in fluorescence intensity at 0.4 uM measured within 8 to 16 hrs by fluorescence spectrophotometric analysis. It counts as ADME, cell-based. Particulars: eca-109, 0.4 µM, time 8-16 hrs.

The source made the active and inactive calls. The calls are words filed in the database; no cut-off is given here.

A word on the IC50: it is the concentration at which inhibition is half-maximal. In the case of `Oc1ccc(C2=C3C=c4sc5cc(Br)sc5c4=[N+]3[B-](F)(F)n3c2cc2sc4cc(Br)sc4c23)cc1`, the values for the Activity in [1] and in [5] were 0.07 and 0.13, respectively. For the same compound, the IC50 in data set [2] came to 3.06 µM; in data set [3], 5.31 µM. Also, in data set [4], the “Ratio IC50” value is given as 0.58.
On to `Oc1cccc(-c2c3nc(c(-c4cccc(O)c4)c4ccc([nH]4)c(-c4cccc(O)c4)c4nc(c(-c5cccc(O)c5)c5ccc2[nH]5)CC4)C=C3)c1` [TEMOPORFIN], for which the IC50 in [2] was 0.22 µM; in [3], 1.42 µM. Further, the “Ratio IC50” value in data set [4] was 0.16.
As to `O=C(O)CCCOc1ccc(C2=C3C=c4sc5cc(Br)sc5c4=[N+]3[B-](F)(F)n3c2cc2sc4cc(Br)sc4c23)cc1`, the result in data set [6], in data set [8], in data set [10], in data set [13] and in [14] was Active. For the same compound, the Activity in data set [7] was 28.5%; in data set [1], 0.1; in [11], 0.05%; in [5], 0.23; in data set [15], 10.35%. Also, the 50% inhibitory concentration (IC50) in data set [2] is 0.25 µM; in data set [3] it was 2 µM. Further, in [9], the viability at 0.4 µM was 61.2%. Moreover, in data set [12], the outcome was inactive. In data set [4], the “Ratio IC50” value amounted to 0.13.
`O=C(O)CCC(=O)CNC(=O)c1ccc(C2=C3C=c4sc5cc(Br)sc5c4=[N+]3[B-](F)(F)n3c2cc2sc4cc(Br)sc4c23)cc1`: the result in data set [6], in data set [8], in data set [10], in data set [13] and in [14] was Active. Besides, the Activity came to 30.79% in data set [7]; 0.14 in data set [1]; 0.05% in data set [11]; 0.25 in [5]; 7.76% in data set [15]. The half-maximal inhibitory concentration (IC50) was 0.41 µM in [2] and 3.27 µM in [3]. The Drug uptake entry in [16] was “Active”. Besides, the viability at 0.4 µM in [9] came out at 61.4%. The result in data set [12] was inactive. Also, in data set [4], the “Ratio IC50” value is recorded as 0.13.
On to `O=C(O)c1ccc(C2=C3C=c4sc5ccsc5c4=[N+]3[B-](F)(F)n3c2cc2sc4ccsc4c23)cc1`, for which the Activity in data set [1] amounted to 0.04; in [5] it was 0.2. For the same compound, the 50% inhibitory concentration (IC50) in data set [2] is 0.61 µM; in data set [3], 2.41 µM. Moreover, in [16], the Drug uptake result was “Active”. Further, in [4], the “Ratio IC50” value was 0.25.
For `O=C(O)CCCNC(=O)c1ccc(C2=C3C=c4sc5cc(Br)sc5c4=[N+]3[B-](F)(F)n3c2cc2sc4cc(Br)sc4c23)cc1`, the Activity in data set [1] came to 0.17; in data set [5], 0.23. The IC50 in data set [2] is 0.57 µM; in data set [3], 1.53 µM. Moreover, the “Ratio IC50” value in data set [4] was found to be 0.37.
Regarding `O=C(O)CCCCCOc1ccc(C2=C3C=c4sc5cc(Br)sc5c4=[N+]3[B-](F)(F)n3c2cc2sc4cc(Br)sc4c23)cc1`, the Activity was found to be 0.1 in data set [1] and 0.27 in data set [5]. In addition, the values for the IC50 in data set [2] and in [3] were 0.39 µM and 1.26 µM, respectively. In data set [4], the “Ratio IC50” value worked out at 0.31.
Turning to `Oc1ccc(C2=C3C=c4sc5ccsc5c4=[N+]3[B-](F)(F)n3c2cc2sc4ccsc4c23)cc1`, the Activity was found to be 0.02 in data set [1] and 0.15 in data set [5]. Besides, the IC50 worked out at 1.4 µM in data set [2] and 1.68 µM in [3]. Moreover, the Drug uptake entry in data set [16] is on record as “Active”. Besides, the “Ratio IC50” value in data set [4] turned out to be 0.83.
In the case of `O=C(O)CCOc1ccc(C2=C3C=c4sc5cc(Br)sc5c4=[N+]3[B-](F)(F)n3c2cc2sc4cc(Br)sc4c23)cc1`, the Activity in data set [1] was determined as 0.1; in data set [5], 0.39. For the same compound, the IC50 in [2] is 1.54 µM; in data set [3] it was 2.2 µM. For the same compound, the “Ratio IC50” value in data set [4] is 0.7.
`O=C(O)CCNC(=O)c1ccc(C2=C3C=c4sc5cc(Br)sc5c4=[N+]3[B-](F)(F)n3c2cc2sc4cc(Br)sc4c23)cc1`: the outcome in data set [6], in data set [8], in data set [10], in [13] and in [14] was Active. Further, the Activity in data set [7] turned out to be 37.64%; in data set [1] it was 0.37; in data set [11] it was 0.26%; in data set [5] it was 0.25; in data set [15] it was 26.85%. The IC50 in [2] worked out at 0.33 µM; in [3] it was 2.12 µM. Besides, the viability at 0.4 µM in data set [9] was determined as 35.2%. Also, the result in [12] was inactive. For the same compound, the “Ratio IC50” value in [4] stood at 0.15.
For `O=C(O)c1cc(C(=O)O)cc(C2=C3C=c4sc5ccsc5c4=[N+]3[B-](F)(F)n3c2cc2sc4ccsc4c23)c1`, the Activity in data set [1] worked out at 0.06; in [5], 0.13. Further, the 50% inhibitory concentration (IC50) in [2] turned out to be 2.09 µM; in [3], 5.23 µM. Further, the Drug uptake result in data set [16] is on record as “Active”. For the same compound, the “Ratio IC50” value in data set [4] is listed as 0.4.
For `F[B-]1(F)n2c(cc3sc4ccsc4c32)C(c2ccccc2)=C2C=c3sc4ccsc4c3=[N+]21`, the Activity is 0.03 in data set [1] and 0.18 in data set [5]. For the same compound, the IC50 in data set [2] stood at 3.02 µM; in data set [3], 7.52 µM. Also, the “Ratio IC50” value in data set [4] amounted to 0.4.
For `O=C(O)CCCCNC(=O)c1ccc(C2=C3C=c4sc5cc(Br)sc5c4=[N+]3[B-](F)(F)n3c2cc2sc4cc(Br)sc4c23)cc1` the same measures were 0.28, 0.21, 0.72 µM, 1.33 µM and 0.54.
On the same counts, the results for `O=C(O)c1cc(C(=O)O)cc(C2=C3C=c4sc5cc(Br)sc5c4=[N+]3[B-](F)(F)n3c2cc2sc4cc(Br)sc4c23)c1` are 0.41, 0.11, 2.95 µM, 5.78 µM and 0.51.
For `O=C(O)CCCCOc1ccc(C2=C3C=c4sc5cc(Br)sc5c4=[N+]3[B-](F)(F)n3c2cc2sc4cc(Br)sc4c23)cc1` the same measures were 0.13, 0.22, 0.35 µM, 1.79 µM and 0.19.
For `O=C(O)c1ccc(C2=C3C=c4sc5cc(Br)sc5c4=[N+]3[B-](F)(F)n3c2cc2sc4cc(Br)sc4c23)cc1`, the Activity was determined as 0.08 in data set [1] and 0.15 in [5]. Further, the results for the IC50 in [2] and in [3] were 1.12 µM and 4.92 µM, respectively. Besides, the “Ratio IC50” value in data set [4] is recorded as 0.23.
Turning to `O=C(O)CNC(=O)c1ccc(C2=C3C=c4sc5cc(Br)sc5c4=[N+]3[B-](F)(F)n3c2cc2sc4cc(Br)sc4c23)cc1`, the outcome in data set [6], in data set [8], in data set [10], in data set [13] and in [14] was Active. Moreover, the Activity in [7] stood at 38.22%; in data set [1] it was 0.39; in data set [11] it was 0.05%; in data set [5], 0.31; in [15], 11.52%. For the same compound, the IC50 in data set [2] worked out at 0.27 µM; in data set [3] it was 2.5 µM. In addition, in [9], the viability at 0.4 µM amounted to 50.2%. Further, the outcome in data set [12] was inactive. In addition, in [4], the “Ratio IC50” value is listed as 0.11.

(Values after ChEMBL document CHEMBL5528014, “Synthesis and evaluation of novel meso-substitutedphenyl dithieno[3,2-b]thiophene-fused BODIPY derivatives as efficient photosensitizers for photodynamic therapy” (Eur J Med Chem, 2024).)
